Results reported in PubChem BioAssay (NCI).
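Assay format: 96-well plates, 48-hour exposure. GI50: concentration for 50% inhibition of growth. Definition used: TGI = concentration required for complete inhibition of growth.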

Legend:
Assay in all cases: NCI-60 cell line screen, 48 h
A498 renal = test system: A498 renal
RPMI-8226 leukemia = test system: RPMI-8226 leukemia
MOLT-4 leukemia = test system: MOLT-4 leukemia
SF-268 CNS = test system: SF-268 CNS
NCI-H226 lung = test system: NCI-H226 lung
HOP-92 NSCLC = test system: HOP-92 NSCLC
DU-145 prostate = test system: DU-145 prostate
KM12 colon = test system: KM12 colon
IGROV1 ovarian = test system: IGROV1 ovarian
SW-620 colon = test system: SW-620 colon

Structure (SMILES)	TGI (A498 renal) [µM]	TGI (RPMI-8226 leukemia) [µM]	TGI (MOLT-4 leukemia) [µM]	TGI (SF-268 CNS) [µM]	TGI (NCI-H226 lung) [µM]	TGI (HOP-92 NSCLC) [µM]	TGI (DU-145 prostate) [µM]	TGI (KM12 colon) [µM]	TGI (IGROV1 ovarian) [µM]	TGI (SW-620 colon) [µM]	GI50 (A498 renal) [µM]	GI50 (SF-268 CNS) [µM]	GI50 (HOP-92 NSCLC) [µM]	GI50 (DU-145 prostate) [µM]	GI50 (RPMI-8226 leukemia) [µM]	GI50 (MOLT-4 leukemia) [µM]	GI50 (NCI-H226 lung) [µM]	GI50 (KM12 colon) [µM]	GI50 (IGROV1 ovarian) [µM]	GI50 (SW-620 colon) [µM]
CCOC(=O)c1sc2nc(SC)nc(Nc3ccc4c(c3)OCCO4)c2c1N	27.4	77.1	> 100	20.4	> 100	27.4	33.5	78.5	78.6	> 100	–	–	–	–	–	–	–	–	–	–
COc1ccc2c(c1)c(-c1nc(-c3c[nH]c4ncccc34)cs1)cn2CCCCN1CCCCC1	2.9	–	–	3.21	–	2.48	3.22	–	–	–	1.43	1.59	1.18	1.73	–	–	–	–	–	–
Nc1nc(SCc2ccccc2Cl)c2[nH]cnc2n1	73.1	> 100	> 100	> 100	–	–	–	> 100	> 100	> 100	–	–	–	–	–	–	–	–	–	–
CNC(C)C(O)c1ccc2oc3cc(=O)c4ccccc4c-3nc2c1 (stereo unspecified)	50.6	> 100	54.8	> 100	–	> 100	18	49.8	> 100	> 100	–	–	–	–	–	–	–	–	–	–
COc1ccc(C2COc3c(ccc(O)c3C)C2)cc1OC (stereo unspecified)	> 31.7	166	> 183	> 200	> 139	> 186	–	> 200	> 200	> 200	–	–	–	–	–	–	–	–	–	–
CCCn1cnc2c(SCc3ccc(Cl)cc3)nc(N)nc21	49.1	40.2	–	> 100	–	> 100	> 100	58.9	> 100	> 100	–	–	–	–	–	–	–	–	–	–
C=CCCC1(C)CCCNC1=S (stereo unspecified)	> 100	> 100	> 100	–	> 100	> 100	–	> 100	> 100	> 100	–	–	–	–	–	–	–	–	–	–
CN(C)CCNC(=O)c1cccc2[nH]c(-c3ccccn3)nc12	> 94.8	62.3	70.6	> 59.3	60.8	80.8	–	> 100	> 100	> 100	–	–	–	–	–	–	–	–	–	–
Cc1nc2ccc(S(=O)(=O)Nc3nccs3)cc2c(=O)n1NS(=O)(=O)c1nccs1	> 100	> 100	> 100	> 100	> 100	> 100	> 100	> 100	> 100	> 100	–	–	–	–	–	–	–	–	–	–
COc1ccc(/C=N/n2cnc3c(c2=O)SC(=C(C#N)C#N)N3c2ccccc2)cc1	–	> 100	> 100	> 100	> 100	> 100	–	> 100	> 100	> 100	–	–	–	–	–	–	–	–	–	–
O=C(N[C@@H](Cc1coc2ccccc12)B(O)O)[C@@H]1C[C@H]2CC[C@@H]1O2	5.73	5.2	48	> 100	2.76	80.8	> 100	57.9	> 100	> 100	0.702	9.62	5.06	7.5	0.45	2.96	1.13	11.4	16.1	3.3
